In ChEMBL document CHEMBL1147006, “Synthesis, characterization and antiamoebic activity of 1-(thiazolo[4,5-b]quinoxaline-2-yl)-3-phenyl-2-pyrazoline derivatives” (Bioorg Med Chem Lett, 2006):

Test system: Entamoeba histolytica
Assay: Antiamoebic activity against Entamoeba histolytica HM-1:IMSS
Type: functional, organism-based

Row | SMILES | IC50
1 | CC1CN(C(N)=S)N=C1c1ccccc1 (stereo unspecified) | 10.2 µM
2 | c1ccc(C2=NN(c3nc4nc5ccccc5nc4s3)CC2)cc1 | 6.76 µM
3 | CC1CN(c2nc3nc4ccccc4nc3s2)N=C1c1cccc(Cl)c1 (stereo unspecified) | 0.72 µM
4 | CC1CN(c2nc3nc4ccccc4nc3s2)N=C1c1cccc(Br)c1 (stereo unspecified) | 1.45 µM
5 | Brc1cccc(C2=NN(c3nc4nc5ccccc5nc4s3)CC2)c1 | 4.98 µM
6 | Cc1ncc([N+](=O)[O-])n1CCO [METRONIDAZOLE] | 1.69 µM
7 | Clc1cccc(C2=NN(c3nc4nc5ccccc5nc4s3)CC2)c1 | 1.09 µM

The remaining compounds from weak to strong by IC50, led by results:

Row | IC50 | SMILES
8 | 17.2 µM | NC(=S)N1CCC(c2ccccc2)=N1
9 | 13.2 µM | NC(=S)N1CCC(c2cccc(Br)c2)=N1
10 | 8.7 µM | NC(=S)N1CCC(c2cccc(Cl)c2)=N1
11 | 2.34 µM | CC1CN(c2nc3nc4ccccc4nc3s2)N=C1c1ccccc1 (stereo unspecified)
